Measured values taken from US20250115598A1 (Anaxis Pharma Pty Ltd, priority 2021, published 2025).
Read-outs that look alike come from different tables or passages of the source.

How the values were obtained:
human RIPK3 = human RIPK3 (Homo sapiens (Human), UniProt Q9Y572); assay: KINOMEscan binding assay, human RIPK3; details: Table 21
In short: (§1)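 Competition binding format with qPCR detection. Kinases, either phage-fused from E. coli lysates or HEK-293-derived with a DNA tag, bound ligand-coated beads in the presence of compound (11 points, 3-fold steps, 1% DMSO, top usually 30,000 nM). Kd from nonlinear Hill fitting with slope −1.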

[1] = tested on: Immortalised Mouse Dermal Fibroblasts (MDFs); assay: Cellular assay: inhibition of TSI induced necroptosis, CellTitre-Glo viability; details: Mus musculus, Fibroblast, MDF, 3 hours TSI cocktail, read-out: Inhibition of TSI-induced necroptosis (IC50 cell-based assay) in MDF
In short: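 Immortalised mouse dermal fibroblasts (2200 cells/well) pretreated 30 min with compound, 10-point 1:3 series from 36 μM, 0.3% DMSO. Then 3 h at 37° C. with TNF (100 ng/ml), Smac mimetic (500 nM) and IDN-6556 (10 μM). CellTiter-Glo luminescence normalised to DMSO (100%) and DMSO+TSI (0%); IC50 from 4-parameter logistic fit.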

U937 cells = assay: Counter screen: cell viability without the TSQ cocktail (off-target effect); parameters: species or system human
Protocol: (§2) • Cell Line ID: U937 human histiocytic leukemia cell line. • Cell Concentration (cells/well): Final cell density is 20000 cells per well. • Cell growth medium: HT-RPMI medium+7.4% Fetal Bovine Serum (FBS). Cells are cultured in Corning 150 cm^2 tissue culture flasks with vented caps at 37° C./5% CO2. • Incubation: Plates were incubated at 37° C./5% CO2 in a humidified incubator for 48 hours following addition of compounds and death stimuli (TSQ cocktail). • Compound concentration: 36 μM starting concentration, 1:3 dilution, 10 point • DMSO final concentration (% v/v): 0.3%. Compounds in TSQ Cocktail (T: TNF; S: Smac Mimetic; Q: Q-VD-OPh) and their Final Concentrations: • hTNF-Fc (100 ng/ml)—produced by standard procedures as shown in Bossen et al., J. Biol. Chem., 2006, 281(20), 13964-13971. • Compound A (500 nM)—Smac mimetic, Tetralogic and SYNthesis med chem • Q-VD-OPh (10 μM)—MP Biomedicals
(§3) The cellular assay was carried out according to the following steps: • 1. Each well was prepared by sequential addition of: • a. DMSO (control; columns 1-2 and 23-24) or compound in DMSO—addition was performed using acoustic transfer of nL volumes of stock compound to give final test concentrations of 36, 12, 4, 1.3, 0.44, 0.148, 0.049, 0.016, 0.005 and 0.002 μM. All wells were backfilled with DMSO to a final total volume in the well of 100 nL. • b. Following compound/DMSO addition in step (a), 40 μL of cell suspension (5×10^5 cells/mL) was added to provide a final cell concentration of 20,000 cells per well, and • c. Following cell addition in step (b), 10 μL of 5×TSQ cocktail (except to positive controls; columns 1 and 23) was added to each well. • 2. After 48 hours, plate was removed from the 37° C. incubator and equilibrated to room temperature for 45 minutes. • 3.15 μL of room temperature CellTitre-Glo2™ (Promega™) was added to each well. • 4. Shook plates for 2 minutes (˜600 rpm) and incubated at room temperature for 15 minutes to allow signal to stabilise. • 5. Read luminescence readout on a plate reader.
(§4) • Assay involving the TSQ cocktail (T: TNF; S: Smac mimetic; Q: Q-VD-OPh): TSQ treatment ensures that cells specifically undergo necroptotic cell death. TNF activates the TNF receptor, Smac mimetic directs the signal away from proinflammatory signaling and toward the RIPK1/RIPK3-mediated cell death pathways, and Q-VD-OPh ensures that the apoptotic response is blocked leaving only the programmed necrosis response. The compounds' activity (solution in DMSO) tested in this TSQ-induced assay was evaluated by determining the number of viable cells in culture by measuring the amount of ATP present as measured by CelltiterGlo. • Counter screen: In parallel, all compounds were tested for their ability to affect cell viability. The same U937 cells were treated with compound in DMSO without the TSQ cocktail. This counter screen enabled evaluation of off-target effects. In this case, cell viability was measured by CelltiterGlo.

human RIPK1 = human RIPK1 (Homo sapiens (Human), UniProt Q13546); assay: KINOMEscan binding assay, human RIPK1; details: Table 21
In short: as §1

[2] = tested on: U937 human histiocytic leukemia cell line; assay: Cellular assay: inhibition of TSQ induced necroptosis, CellTitre-Glo viability; details: Homo sapiens, U-937; U937 cells, 48 hours, TSQ cocktail, Table 26; read-out: Inhibition of TSQ-induced necroptosis (IC50 cell-based assay)
Protocol: Cellular Assay: Screening Compounds for Inhibition of TSQ Induced Necroptosis, 384 Well Plate Format.
as §2, §3
Percent viability was calculated for each compound according to equation (2):
as §4

human MLKL (full length) = human MLKL (full length) (Homo sapiens (Human), UniProt Q8NB16); assay: KINOMEscan binding assay, human MLKL (full length); details: hMLKL, Table 25; read-out: MLKL (KD)
In short: as §1

endogenous MLKL in MDF = endogenous MLKL in MDF (Mus musculus (Mouse), UniProt Q9D2Y4); assay: Degradation assay: endogenous MLKL in MDF (western blot); details: MDF cells, 24 h incubation with compound, MLKL adjusted for loading with GAPDH, normalized to DMSO only control, read-out: Degradation of endogenous MLKL in MDF (DC50 cell-based assay)
In short: (§5)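 MDF (seeded the day before) or U937 cells were treated 24 h at 37 °C, 10% CO2 with compound at 10, 2, 0.4, 0.08 and 0.016 μM final. Endogenous MLKL was quantified by western blot (anti-MLKL 3H1), normalized to GAPDH. Percent degradation was taken relative to DMSO control.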

endogenous MLKL in U937 = endogenous MLKL in U937 (Homo sapiens (Human), UniProt Q8NB16); assay: Degradation assay: endogenous MLKL in U937 (western blot); details: U937, 24 h incubation, read-out: Degradation of endogenous MLKL in U937 (DC50 cell-based assay)
In short: as §5

[3] = Homo sapiens, U-937, Table 23, read-out: Off-target effect (IC50 cell-based assay)
[4] = Homo sapiens, U-937, Table 26, read-out: Off-target effect (IC50 cell-based assay)

human MLKL (full length), sequence (Q8NB16 whole entry): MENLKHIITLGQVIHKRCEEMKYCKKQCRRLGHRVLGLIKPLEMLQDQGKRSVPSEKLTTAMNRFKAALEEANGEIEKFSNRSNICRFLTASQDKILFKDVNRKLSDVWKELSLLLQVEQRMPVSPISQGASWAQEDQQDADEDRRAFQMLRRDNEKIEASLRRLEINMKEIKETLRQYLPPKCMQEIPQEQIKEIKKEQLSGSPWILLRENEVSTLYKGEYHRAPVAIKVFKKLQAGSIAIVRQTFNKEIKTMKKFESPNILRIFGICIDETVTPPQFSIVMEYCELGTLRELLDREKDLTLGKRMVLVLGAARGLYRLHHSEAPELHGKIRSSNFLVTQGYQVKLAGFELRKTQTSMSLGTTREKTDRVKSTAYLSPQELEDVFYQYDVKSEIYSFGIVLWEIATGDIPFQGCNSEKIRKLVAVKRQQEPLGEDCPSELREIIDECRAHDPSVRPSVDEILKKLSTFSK
human RIPK1, sequence (Q13546 whole entry): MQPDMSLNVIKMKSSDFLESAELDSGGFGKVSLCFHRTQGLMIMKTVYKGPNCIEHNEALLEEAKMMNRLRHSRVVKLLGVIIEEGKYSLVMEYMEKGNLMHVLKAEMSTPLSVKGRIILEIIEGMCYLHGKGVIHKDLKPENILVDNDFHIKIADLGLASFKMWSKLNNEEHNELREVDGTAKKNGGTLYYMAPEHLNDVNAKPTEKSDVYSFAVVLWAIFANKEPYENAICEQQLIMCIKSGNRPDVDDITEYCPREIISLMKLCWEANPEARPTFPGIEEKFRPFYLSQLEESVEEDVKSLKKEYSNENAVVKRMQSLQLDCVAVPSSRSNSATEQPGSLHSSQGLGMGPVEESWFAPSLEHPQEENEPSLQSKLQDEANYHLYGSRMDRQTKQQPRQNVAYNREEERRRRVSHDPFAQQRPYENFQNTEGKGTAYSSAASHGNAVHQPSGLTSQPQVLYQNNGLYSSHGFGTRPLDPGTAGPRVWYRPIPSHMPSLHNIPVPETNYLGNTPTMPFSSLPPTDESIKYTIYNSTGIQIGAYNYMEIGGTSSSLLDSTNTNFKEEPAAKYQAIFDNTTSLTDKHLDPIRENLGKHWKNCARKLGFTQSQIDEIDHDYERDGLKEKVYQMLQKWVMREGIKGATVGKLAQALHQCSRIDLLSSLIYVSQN
human RIPK3, sequence (Q9Y572 whole entry, the tested form may be a part): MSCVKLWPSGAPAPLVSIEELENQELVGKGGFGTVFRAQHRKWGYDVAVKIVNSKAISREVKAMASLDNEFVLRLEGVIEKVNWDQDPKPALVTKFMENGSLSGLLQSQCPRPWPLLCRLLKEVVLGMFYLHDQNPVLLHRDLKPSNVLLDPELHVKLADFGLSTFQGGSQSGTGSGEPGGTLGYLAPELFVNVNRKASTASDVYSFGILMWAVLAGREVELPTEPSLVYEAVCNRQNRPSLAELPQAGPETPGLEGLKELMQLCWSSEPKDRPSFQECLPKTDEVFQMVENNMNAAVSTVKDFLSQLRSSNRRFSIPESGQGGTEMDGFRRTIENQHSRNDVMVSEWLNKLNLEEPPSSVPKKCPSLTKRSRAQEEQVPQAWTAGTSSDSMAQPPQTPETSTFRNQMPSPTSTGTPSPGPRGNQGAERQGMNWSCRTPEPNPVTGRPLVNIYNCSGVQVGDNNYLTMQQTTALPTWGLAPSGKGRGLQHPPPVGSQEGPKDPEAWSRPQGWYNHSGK
endogenous MLKL in U937, sequence (Q8NB16 whole entry): as the sequence (Q8NB16 whole entry) above
endogenous MLKL in MDF, sequence (Q9D2Y4 whole entry): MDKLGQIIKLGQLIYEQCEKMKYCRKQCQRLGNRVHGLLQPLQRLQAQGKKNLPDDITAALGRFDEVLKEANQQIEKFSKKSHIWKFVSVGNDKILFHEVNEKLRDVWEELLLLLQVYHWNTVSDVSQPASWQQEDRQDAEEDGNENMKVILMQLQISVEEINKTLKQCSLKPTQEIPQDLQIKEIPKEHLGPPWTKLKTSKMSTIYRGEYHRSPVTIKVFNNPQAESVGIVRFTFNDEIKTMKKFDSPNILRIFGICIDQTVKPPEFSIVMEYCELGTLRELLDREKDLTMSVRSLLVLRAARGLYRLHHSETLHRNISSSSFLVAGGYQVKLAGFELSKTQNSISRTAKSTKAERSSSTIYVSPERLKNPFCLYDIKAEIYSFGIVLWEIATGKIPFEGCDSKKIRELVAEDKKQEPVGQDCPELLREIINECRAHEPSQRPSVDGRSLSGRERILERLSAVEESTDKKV

Kd (human MLKL (full length))	Structure (SMILES)	IC50 (U937 cells; [3])	IC50 [2]	IC50 (U937 cells; [4])	other results
–	C[C@H](Oc1cc(-c2nn(C)c3c(-c4cnn(C5CCN(C)CC5)c4)cnc(N)c23)ccc1NS(=O)(=O)C(F)F)c1ccc(F)cc1 [Compound 46, (S)-N-(4-(4-amino-1-methyl-7-(1-(1-methylpiperidin-4-yl)-1H-pyrazol-4-yl)-1H-pyrazolo[4,3-c]pyridin-3-yl)-2-(1-(4-fluorophenyl)ethoxy)phenyl)-1,1-difluoromethanesulfonamide]	> 10 µM	–	–	Kd (human RIPK3): > 10 µM; IC50 ([1]; Table 24): < 1 µM; Kd (human RIPK1): > 10 µM
–	C[C@H](Oc1cc(-c2nn(C)c3c(-c4ccnc(C(C)(C)C)c4)cnc(N)c23)ccc1NS(=O)(=O)C(F)F)c1ccc(F)cc1 [Compound 48, (S)-N-(4-(4-amino-7-(2-(tert-butyl)pyridin-4-yl)-1-methyl-1H-pyrazolo[4,3-c]pyridin-3-yl)-2-(1-(4-fluorophenyl)ethoxy)phenyl)-1,1-difluoromethanesulfonamide]	1 to 10 µM	–	–	Kd (human RIPK3): > 10 µM; Kd (human RIPK1): > 10 µM
< 0.01 µM	CCS(=O)(=O)Nc1ccc(-c2n[nH]c3c(-c4cnn(CCC(=O)N[C@H](C(=O)N5C[C@H](O)C[C@H]5C(=O)NCc5ccc(-c6scnc6C)cc5)C(C)(C)C)c4)cnc(N)c23)cc1OCc1ccc(F)cc1 [Compound 1001, (2S,4R)-1-[(2S)-2-{3-[4-(4-amino-3-{4-ethanesulfonamido-3-[(4-fluorophenyl)methoxy]phenyl}-1H-pyrazolo[4,3-c]pyridin-7-yl)-1H-pyrazol-1-yl]propanamido}-3,3-dimethylbutanoyl]-4-hydroxy-N-{[4-(4-methyl-1,3-thiazol-5-yl)phenyl]methyl}pyrrolidine-2-carboxamide]	–	> 10 µM	> 10 µM	–
0.01 to 1 µM	Cc1ncsc1-c1ccc(CNC(=O)[C@@H]2C[C@H](O)CN2C(=O)[C@@H](NC(=O)COCCOCCn2cc(-c3cnc(N)c4c(-c5ccc(NS(=O)(=O)C(F)F)c(O[C@@H](C)c6ccc(F)cc6)c5)nn(C)c34)cn2)C(C)(C)C)cc1 [Compound 1007, (2S,4S)-1-[(2S)-2-(2-{2-[2-(4-{4-amino-3-[4-(difluoromethanesulfonamido)-3-[(1S)-1-(4-fluorophenyl)ethoxy]phenyl]-1-methyl-1H-pyrazolo[4,3-c]pyridin-7-yl}-1H-pyrazol-1-yl)ethoxy]ethoxy}acetamido)-3,3-dimethylbutanoyl]-4-hydroxy-N-{[4-(4-methyl-1,3-thiazol-5-yl)phenyl]methyl}pyrrolidine-2-carboxamide]	–	< 1 µM	> 10 µM	–
< 0.01 µM	CCS(=O)(=O)Nc1ccc(-c2n[nH]c3c(-c4cnn(CCOCC(=O)N[C@H](C(=O)N5C[C@H](O)C[C@H]5C(=O)NCc5ccc(-c6scnc6C)cc5)C(C)(C)C)c4)cnc(N)c23)cc1OCc1ccc(F)cc1 [Compound 1004, (2S,4R)-1-[(2S)-2-(2-{2-[4-(4-amino-3-{4-ethanesulfonamido-3-[(4-fluorophenyl)methoxy]phenyl}-1H-pyrazolo[4,3-c]pyridin-7-yl)-1H-pyrazol-1-yl]ethoxy}acetamido)-3,3-dimethylbutanoyl]-4-hydroxy-N-{[4-(4-methyl-1,3-thiazol-5-yl)phenyl]methyl}pyrrolidine-2-carboxamide]	–	> 10 µM	> 10 µM	–
–	CCS(=O)(=O)Nc1ccc(-c2nn(C)c3c(-c4cnn(CCOCCOCC(=O)N[C@H](C(=O)N5C[C@H](O)C[C@H]5C(=O)NCc5ccc(-c6scnc6C)cc5)C(C)(C)C)c4)cnc(C)c23)cc1F [Compound 1029, (2S,4R)-1-[(2S)-2-{2-[2-(2-{4-[3-(4-ethanesulfonamido-3-fluorophenyl)-1,4-dimethyl-1H-pyrazolo[4,3-c]pyridin-7-yl]-1H-pyrazol-1-yl}ethoxy)ethoxy]acetamido}-3,3-dimethylbutanoyl]-4-hydroxy-N-{[4-(4-methyl-1,3-thiazol-5-yl)phenyl]methyl}pyrrolidine-2-carboxamide]	–	< 1 µM	> 10 µM	–
–	C[C@H](Oc1cc(-c2nn(C)c3c(-c4cnn(C5CCN(C)C6(CC6)C5)c4)cnc(N)c23)ccc1NS(=O)(=O)C(F)F)c1ccc(F)cc1 (single isomer, unassigned) [Compound 170, N-(4-(4-amino-1-methyl-7-(1-((S*)-4-methyl-4-azaspiro[2.5]octan-7-yl)-1H-pyrazol-4-yl)-1H-pyrazolo[4,3-c]pyridin-3-yl)-2-((S)-1-(4-fluorophenyl)ethoxy)phenyl)-1,1-difluoromethanesulfonamide]	> 10 µM	–	–	–
–	C[C@H](Oc1cc(-c2nn(C)c3c(-c4cnn(C5CCN(C)C6(CC6)C5)c4)cnc(N)c23)ccc1NS(=O)(=O)C(F)F)c1ccc(F)cc1 (single isomer, unassigned) [Compound 171, N-(4-(4-amino-1-methyl-7-(1-((R*)-4-methyl-4-azaspiro[2.5]octan-7-yl)-1H-pyrazol-4-yl)-1H-pyrazolo[4,3-c]pyridin-3-yl)-2-((S)-1-(4-fluorophenyl)ethoxy)phenyl)-1,1-difluoromethanesulfonamide]	–	–	–	IC50 (U937 cells; Table 23, read-out: Off-target effect (IC50 cell-based assay)): > 10 µM
< 0.01 µM	C[C@H](Oc1cc(-c2nn(C)c3c(-c4cnn(C5CCN(C(=O)[C@H]6C[C@H](Nc7cccc8c7C(=O)N(C7CCC(=O)NC7=O)C8=O)C6)CC5)c4)cnc(N)c23)ccc1NS(=O)(=O)C(F)F)c1ccc(F)cc1 (stereo partly drawn) [Compound 1047, N-{4-[4-amino-1-methyl-7-(1-{1-[(trans)-3-{[2-(2,6-dioxopiperidin-3-yl)-1,3-dioxo-2,3-dihydro-1H-isoindol-4-yl]amino}cyclobutanecarbonyl]piperidin-4-yl}-1H-pyrazol-4-yl)-1H-pyrazolo[4,3-c]pyridin-3-yl]-2-[(1 S)-1-(4-fluorophenyl)ethoxy]phenyl}-1,1-difluoromethanesulfonamide]	–	–	–	DC50 (endogenous MLKL in MDF): < 1 µM; IC50 ([1]; Table 27): < 1 µM; DC50 (endogenous MLKL in U937): < 1 µM
